# Results published in patent publication US8048862B2, “Macrocyclic inhibitors of hepatitis C virus replication” (priority 2008, dated 2011).
# Read-outs that look alike come from different tables or passages of the source.
# Columns and labels:
# NS3/NS4 complexes = NS3/NS4 complexes (Hepatitis C virus genotype 1a, UniProt P27958); assay: NS3/NS4 inhibition activity (IC50); assay type: biochemical
# Method in brief: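 Buffer: 50 mM Tris-HCl (pH 7.5), 10 mM DTT, 25 μM NS4A peptide, 0.6 mM LDAO and 15% glycerol. Assays were run at 23 °C with preformed NS3/NS4 complex, and the compound concentration giving inhibition was derived as an IC50.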
# hepatitis C replicon = hepatitis C replicon EC50; assay type: cell-based; conditions: Hepatitis C virus
# Text: NS3-NS4 inhibition activity can be determined using known assay methods.
# [1] = Table 3, hepatitis C replicon, read-out: EC50
# Chain of NS3/NS4 complexes (P27958 1027-1657): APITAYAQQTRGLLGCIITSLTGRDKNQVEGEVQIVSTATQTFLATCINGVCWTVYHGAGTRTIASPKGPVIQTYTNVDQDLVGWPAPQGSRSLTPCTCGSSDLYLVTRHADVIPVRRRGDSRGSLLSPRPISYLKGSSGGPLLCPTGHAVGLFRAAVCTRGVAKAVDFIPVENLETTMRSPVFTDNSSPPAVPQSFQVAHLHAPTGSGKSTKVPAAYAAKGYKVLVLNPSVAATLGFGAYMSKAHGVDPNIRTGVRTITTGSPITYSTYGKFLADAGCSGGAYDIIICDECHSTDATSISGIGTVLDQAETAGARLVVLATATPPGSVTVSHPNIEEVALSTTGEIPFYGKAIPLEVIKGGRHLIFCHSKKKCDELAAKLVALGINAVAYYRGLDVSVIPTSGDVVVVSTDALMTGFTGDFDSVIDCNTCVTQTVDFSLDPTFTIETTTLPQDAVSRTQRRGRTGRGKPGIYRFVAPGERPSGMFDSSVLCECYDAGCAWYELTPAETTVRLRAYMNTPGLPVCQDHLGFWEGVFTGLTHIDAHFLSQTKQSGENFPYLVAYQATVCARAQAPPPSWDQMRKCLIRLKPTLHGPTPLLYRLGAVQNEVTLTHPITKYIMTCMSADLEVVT
# Chain of NS3/NS4 complexes (P27958 1658-1711): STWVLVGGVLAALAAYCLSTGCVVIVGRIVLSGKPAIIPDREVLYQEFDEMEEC
Compound,"IC50 (NS3/NS4 complexes; Table 3, read-out: IC50)",EC50 (hepatitis C replicon; [1]),"IC50 (NS3/NS4 complexes; IC50, Table 3)",EC50 (hepatitis C replicon)
CC(C)(C)OC(=O)N[C@H]1CCCCC/C=C\[C@@H]2C[C@@]2(C(=O)NS(=O)(=O)C2CC2)NC(=O)[C@@H]2C[C@@H](Oc3nc4ccc(F)cc4s3)CN2C1=O [Compound 1010],< 10 nM,10 to 100 nM,,
CC(C)(C)OC(=O)N[C@H]1CCCCC/C=C\[C@@H]2C[C@@]2(C(=O)NS(=O)(=O)C2(C)CC2)NC(=O)[C@@H]2C[C@@H](Oc3nc4ccc(F)cc4s3)CN2C1=O [Compound 1011],< 10 nM,10 to 100 nM,,
CC(C)(C)OC(=O)N[C@H]1CCCCC/C=C\[C@@H]2C[C@@]2(C(=O)NS(=O)(=O)C2CC2)NC(=O)[C@@H]2C[C@@H](Oc3nc4ccc(Br)cc4s3)CN2C1=O [Compound 1012],< 10 nM,< 10 nM,,
CC(C)(C)OC(=O)N[C@H]1CCCCC/C=C\[C@@H]2C[C@@]2(C(=O)NS(=O)(=O)C2(C)CC2)NC(=O)[C@@H]2C[C@@H](Oc3nc4ccc(Br)cc4s3)CN2C1=O [Compound 1013],< 10 nM,< 10 nM,,
Cc1ccc2nc(O[C@@H]3C[C@H]4C(=O)N[C@]5(C(=O)NS(=O)(=O)C6(C)CC6)C[C@H]5/C=C\CCCCC[C@H](NC(=O)OC(C)(C)C)C(=O)N4C3)sc2c1 [Compound 1014],< 10 nM,< 10 nM,,
Cc1ccc2nc(O[C@@H]3C[C@H]4C(=O)N[C@]5(C(=O)NS(=O)(=O)C6CC6)C[C@H]5/C=C\CCCCC[C@H](NC(=O)OC(C)(C)C)C(=O)N4C3)sc2c1 [Compound 1015],< 10 nM,< 10 nM,,
COc1ccc2nc(O[C@@H]3C[C@H]4C(=O)N[C@]5(C(=O)NS(=O)(=O)C6(C)CC6)C[C@H]5/C=C\CCCCC[C@H](NC(=O)OC(C)(C)C)C(=O)N4C3)sc2c1 [Compound 1016],< 10 nM,10 to 100 nM,,
CC(C)(C)OC(=O)N[C@H]1CCCCC/C=C\[C@@H]2C[C@@]2(C(=O)NS(=O)(=O)C2CC2)NC(=O)[C@@H]2C[C@@H](Oc3nc4ccc(Cl)cc4s3)CN2C1=O [Compound 1018],< 10 nM,10 to 100 nM,,
CC(C)(C)OC(=O)N[C@H]1CCCCC/C=C\[C@@H]2C[C@@]2(C(=O)NOc2ccccc2)NC(=O)[C@@H]2C[C@@H](Oc3nc4ccccc4o3)CN2C1=O [Compound 1027],> 100 nM,> 100 nM,,
CC(C)(C)OC(=O)N[C@H]1CCCCC/C=C\[C@@H]2C[C@@]2(C(=O)NS(=O)(=O)C2(C)CC2)NC(=O)[C@@H]2C[C@@H](Oc3nc4ccccc4o3)CN2C1=O [Compound 1028],< 10 nM,10 to 100 nM,,
CC(C)(C)OC(=O)N[C@H]1CCCCC/C=C\[C@@H]2C[C@@]2(C(=O)NS(=O)(=O)C2CC2)NC(=O)[C@@H]2C[C@@H](Oc3nc4ccccc4o3)CN2C1=O [Compound 1029],< 10 nM,10 to 100 nM,,
Cc1ccc2oc(O[C@@H]3C[C@H]4C(=O)N[C@]5(C(=O)NS(=O)(=O)C6CC6)C[C@H]5/C=C\CCCCC[C@H](NC(=O)OC(C)(C)C)C(=O)N4C3)nc2c1 [Compound 1030],< 10 nM,10 to 100 nM,,
Cc1cccc2oc(O[C@@H]3C[C@H]4C(=O)N[C@]5(C(=O)NS(=O)(=O)C6CC6)C[C@H]5/C=C\CCCCC[C@H](NC(=O)OC(C)(C)C)C(=O)N4C3)nc12 [Compound 1031],< 10 nM,10 to 100 nM,,
CC(C)(C)OC(=O)N[C@H]1CCCCC/C=C\[C@@H]2C[C@@]2(C(=O)NS(=O)(=O)C2CC2)NC(=O)[C@@H]2C[C@@H](Oc3nc4cc(Cl)ccc4o3)CN2C1=O [Compound 1032],< 10 nM,> 100 nM,,
Cc1ccc2nc(O[C@@H]3C[C@H]4C(=O)N[C@]5(C(=O)NS(=O)(=O)C6CC6)C[C@H]5/C=C\CCCCC[C@H](NC(=O)OC(C)(C)C)C(=O)N4C3)oc2c1 [Compound 1033],< 10 nM,10 to 100 nM,,
CC(C)(C)OC(=O)N[C@H]1CCCCC/C=C\[C@@H]2C[C@@]2(C(=O)NS(=O)(=O)C2CC2)NC(=O)[C@@H]2C[C@@H](Oc3nc4cc(F)ccc4o3)CN2C1=O [Compound 1034],< 10 nM,10 to 100 nM,,
COc1ccc2oc(O[C@@H]3C[C@H]4C(=O)N[C@]5(C(=O)NS(=O)(=O)C6CC6)C[C@H]5/C=C\CCCCC[C@H](NC(=O)OC(C)(C)C)C(=O)N4C3)nc2c1 [Compound 1035],< 10 nM,> 100 nM,,
CC(C)(C)OC(=O)N[C@H]1CCCCC/C=C\[C@@H]2C[C@@]2(C(=O)NS(=O)(=O)C2CC2)NC(=O)[C@@H]2C[C@@H](Oc3nc4ccc(Cl)cc4o3)CN2C1=O [Compound 1036],< 10 nM,> 100 nM,,

Compound,"IC50 (NS3/NS4 complexes; Table 3, read-out: IC50)",EC50 (hepatitis C replicon; [1]),"IC50 (NS3/NS4 complexes; IC50, Table 3)",EC50 (hepatitis C replicon)
CC(C)(C)OC(=O)N[C@H]1CCCCC/C=C\[C@@H]2C[C@@]2(C(=O)NS(=O)(=O)C2CC2)NC(=O)[C@@H]2C[C@@H](Oc3nc4ccc(F)cc4o3)CN2C1=O [Compound 1037],< 10 nM,> 100 nM,,
CC(C)(C)OC(=O)N[C@H]1CCCCC/C=C\[C@@H]2C[C@@]2(C(=O)NS(=O)(=O)C2CC2)NC(=O)[C@@H]2C[C@@H](Oc3nc4cccc(F)c4o3)CN2C1=O [Compound 1038],< 10 nM,10 to 100 nM,,
Cc1cccc2nc(O[C@@H]3C[C@H]4C(=O)N[C@]5(C(=O)NS(=O)(=O)C6CC6)C[C@H]5/C=C\CCCCC[C@H](NC(=O)OC(C)(C)C)C(=O)N4C3)sc12 [Compound 1040],< 10 nM,< 10 nM,,
CC(C)(C)OC(=O)N[C@H]1CCCCC/C=C\[C@@H]2C[C@@]2(C(=O)NS(=O)(=O)C2(C)CC2)NC(=O)[C@@H]2C[C@@H](Oc3nc4cc(Cl)ccc4o3)CN2C1=O [Compound 1046],< 10 nM,> 100 nM,,
CCn1c(O[C@@H]2C[C@H]3C(=O)N[C@]4(C(=O)NS(=O)(=O)C5(C)CC5)C[C@H]4/C=C\CCCCC[C@H](NC(=O)OC(C)(C)C)C(=O)N3C2)nc2ccccc21 [Compound 1048],< 10 nM,< 10 nM,,
CC(C)(C)OC(=O)N[C@H]1CCCCC/C=C\[C@@H]2C[C@@]2(C(=O)NS(=O)(=O)C2(C)CC2)NC(=O)[C@@H]2C[C@@H](Oc3nc4ccccc4n3Cc3ccccc3)CN2C1=O [Compound 1050],< 10 nM,10 to 100 nM,,
CC(C)(C)OC(=O)N[C@H]1CCCCC/C=C\[C@@H]2C[C@@]2(C(=O)NS(=O)(=O)C2CC2)NC(=O)[C@@H]2C[C@@H](Oc3nc4ccccc4n3Cc3ccccc3)CN2C1=O [Compound 1051],< 10 nM,10 to 100 nM,,
CC(C)(C)OC(=O)N[C@H]1CCCCC/C=C\[C@@H]2C[C@@]2(C(=O)NCCC(=O)NCc2ccccc2)NC(=O)[C@@H]2C[C@@H](OC(=O)N3Cc4cccc(F)c4C3)CN2C1=O [Compound 1052],> 100 nM,> 100 nM,,
CC(C)(C)OC(=O)N[C@H]1CCCCC/C=C\[C@@H]2C[C@@]2(C(=O)NCC(=O)NCc2ccccc2)NC(=O)[C@@H]2C[C@@H](OC(=O)N3Cc4cccc(F)c4C3)CN2C1=O [Compound 1053],,,10 to 100 nM,> 100 nM
CC(C)(C)OC(=O)N[C@H]1CCCCC/C=C\[C@@H]2C[C@@]2(C(=O)N2CCC[C@@H]2C(=O)NCc2ccccc2)NC(=O)[C@@H]2C[C@@H](OC(=O)N3Cc4cccc(F)c4C3)CN2C1=O [Compound 1057],,,> 100 nM,> 100 nM
CC(C)(C)OC(=O)N[C@H]1CCCCC/C=C\[C@@H]2C[C@@]2(C(=O)NCCC(=O)NCc2ccccc2)NC(=O)[C@@H]2C[C@@H](O)CN2C1=O [Compound 1058],> 100 nM,> 100 nM,,
CC(=O)O[C@@H]1C[C@H]2C(=O)N[C@]3(C(=O)N4CCC[C@H]4C(=O)NCc4ccccc4)C[C@H]3/C=C\CCCCC[C@H](NC(=O)OC(C)(C)C)C(=O)N2C1 [Compound 1061],,> 100 nM,> 100 nM,
CO[C@@H]1C[C@H]2C(=O)N[C@]3(C(=O)NCCC(=O)NCc4ccccc4)C[C@H]3/C=C\CCCCC[C@H](NC(=O)OC(C)(C)C)C(=O)N2C1 [Compound 1062],> 100 nM,> 100 nM,,
CN(C)C(=O)O[C@@H]1C[C@H]2C(=O)N[C@]3(C(=O)NS(=O)(=O)C4(C)CC4)C[C@H]3/C=C\CCCCC[C@H](NC(=O)OC(C)(C)C)C(=O)N2C1 [Compound 1065],< 10 nM,,,> 100 nM
CC(=O)O[C@@H]1C[C@H]2C(=O)N[C@]3(C(=O)NS(=O)(=O)C4CC4)C[C@H]3/C=C\CCCCC[C@H](NC(=O)OC(C)(C)C)C(=O)N2C1 [Compound 1071],< 10 nM,> 100 nM,,
CC(C)(C)OC(=O)N[C@H]1CCCCC/C=C\[C@@H]2C[C@@]2(C(=O)NS(=O)(=O)C2(C)CC2)NC(=O)[C@@H]2C[C@@H](OC(=O)N3CCCC3)CN2C1=O [Compound 1072],< 10 nM,> 100 nM,,
COc1ccc2c(O[C@@H]3C[C@H]4C(=O)N[C@]5(C(=O)NS(=O)(=O)C6CC6)C[C@H]5/C=C\CCCCC[C@H](NC(=O)OC(C)(C)C)C(=O)N4C3)cc(-c3ccccc3)nc2c1 [Compound 1075],< 10 nM,< 10 nM,,
CC(C)n1c(O[C@@H]2C[C@H]3C(=O)N[C@]4(C(=O)NS(=O)(=O)C5(C)CC5)C[C@H]4/C=C\CCCCC[C@H](NC(=O)OC(C)(C)C)C(=O)N3C2)nc2ccccc21 [Compound 1077],< 10 nM,< 10 nM,,
